Measurements published in patent US5334528A (priority 1989, dated 1994).
Where “and” joins values, the source holds several entries; their conditions need not be identical. Equal entries are not always repeated. Structures can show the parent of a compound that is named as a salt.

These compounds were tested on monoclonal antibody from hybridoma Hept-2.
Assay type: binding, mice

SMILES | % Crossreactivity [%] | I50
ClC1=C(Cl)C(Cl)(Cl)C(Cl)=C1Cl [hexa-Cl-cyclopentadiene] | 1.6 | 
ClC(Cl)=C(Cl)C(Cl)=C(Cl)Cl [hexa-Cl-butadiene] | 0.4 | 
ClC1=C(Cl)C2(Cl)C3C(Cl)C(Cl)CC3C1(Cl)C2(Cl)Cl (stereo not shown) [chlordane, 2,3,4,5,6,7,8,8-Octachloro-2,3,3a,4,7,7a-hexahydro-4,7-methanoindene] | 75 | 1-10 ng/well
ClC1=C(Cl)C2(Cl)C3C4C=CC(C4)C3C1(Cl)C2(Cl)Cl (stereo not drawn) [aldrin, 1,2,3,4,10,10-Hexachloro-1,4,4a,5,8,8a hexahydro-1,4-exo, endo-5,8,-dimethanonaphthalene (HHDN)] | 100 | 1-10 ng/well
Oc1ccccc1Cl [2-Cl-phenol] | 0 | 
O=S1OCC2C(CO1)C1(Cl)C(Cl)=C(Cl)C2(Cl)C1(Cl)Cl (stereo not drawn) [a-Endosulfan, alpha-endosulfan] | 43 | 
ClC1=C(Cl)C2(Cl)C3C4OC4C(Cl)C3C1(Cl)C2(Cl)Cl (stereo not shown) [heptachlor epoxide] | 100 | 1-10 ng/well
O=[N+]([O-])c1ccccc1O [2-nitro-phenol] | 0 | 
O=C(O)COc1ccc(Cl)cc1Cl [2,4-D] | 0 | 
Oc1c(Cl)cc(Cl)cc1Cl [2,4,6-triCl-phenol] | 0 | 
Clc1ccccc1 [Chlorobenzene] | 0 | 
Clc1ccc(Cl)c(Cl)c1 [1,2,4-triCl-Bz] | 0 | 
O=S1OCC2C(CO1)C1(Cl)C(Cl)=C(Cl)C2(Cl)C1(Cl)Cl (stereo not shown) [Endosulfan (mix), 6,7,8,9,10,10-Hexachloro-1,5,5a,6,9,9a-hexahydro-6,9,-methano-2,4,3-benzo[e]-dioxathiepin-3-oxide] | 173 | 
ClC1C(Cl)C(Cl)C(Cl)C(Cl)C1Cl (stereo not shown) [Lindand (BHC), 1,2,3,4,5,6-Hexachlorocyclohexane] | 7.3 | 
Cc1cc(O)ccc1Cl [4-Cl-3-Me phenol] | 0 | 
ClC1=C(Cl)C2(Cl)C3C(Cl)C=CC3C1(Cl)C2(Cl)Cl (stereo not drawn) [heptachlor, 1,-exo-,4,5,6,7,8,8,-Heptachloro-3a,4,7,7a-tetrahydro-4,7-methanoindene] | 100 | 2-4 ng/well and 1-10 ng/well
O=C(O)COc1cc(Cl)c(Cl)cc1Cl [2,4,5-triCl-phenoxyacetic acid] | 0 | 
Oc1ccccc1 [phenol] | 0 | 
Clc1ccccc1Cl [1,2-diCl-Bz] | 0 | 

SMILES | % Crossreactivity [%] | I50
Oc1cc(Cl)c(Cl)cc1O [4,5-diCl-catecol] | 0 | 
Oc1c(Cl)c(Cl)c(Cl)c(Cl)c1Cl [penta-Cl-phenol] | 0 | 
O=S1(=O)OCC2C(CO1)C1(Cl)C(Cl)=C(Cl)C2(Cl)C1(Cl)Cl (stereo not shown) [Endosulfansulfate, endosulfan sulfate] | 182 | 
O=[N+]([O-])c1ccc(O)cc1 [4-nitro-phenol] | 0 | 
Clc1cccc(Cl)c1 [1,3-diCl-Bz] | 0 | 
Cc1ccc(O)c(C)c1 [2,4-DiMe-phenol] | 0 | 
Clc1ccc(C(c2ccc(Cl)cc2)C(Cl)(Cl)Cl)cc1 [DDT] | 0 | 
ClC1=C(Cl)C2(Cl)C3C4CC(C5OC45)C3C1(Cl)C2(Cl)Cl [endrin, (1R, 4S, 5R, 8S) 1,2,3,4,10,10-hexachloro-6,7-epoxy-1,4,4a,5,6,7,8,8a-octahydro-exo-5,8,dimethano-naphthalene] | 150 | 1-10 ng/well
O=C1C2(Cl)C3(Cl)C4(Cl)C(Cl)(Cl)C5(Cl)C3(Cl)C1(Cl)C5(Cl)C24Cl (stereo not shown) [Kepone, Decachloro-octahydro-1,3,4,-metheno-2H-cyclobuta(cd) pentalen-2-one] | 5 | 
O=[N+]([O-])c1cc(Cl)cc(Cl)c1O [2,4-diCl-6-nitrophenol] | 0 | 
O=[N+]([O-])c1cc(Cl)ccc1Cl [2,5-diCl-nitroBz] | 0 | 
O=[N+]([O-])c1ccc(O)c([N+](=O)[O-])c1 [2,4-dinitro-phenol] | 0.2 | 
Oc1ccc(Cl)cc1Cl [2,4-diCl-phenol] | 0 | 
Clc1ccc(Cl)cc1 [1,4-diCl-Bz] | 0 | 
O=S1OCC2C(CO1)C1(Cl)C(Cl)=C(Cl)C2(Cl)C1(Cl)Cl (stereo not drawn) [β-Endosulfan, beta-endosulfan] | 250 | 
Oc1cc(Cl)c(Cl)cc1Cl [2,4,5-triCl-phenol] | 0 | 
Clc1ccc2ccccc2c1 [2-Cl-naphthalene] | 0 | 
ClC(Cl)(Cl)C(Cl)(Cl)Cl [hexa-Cl-ethane] | 0 | 
OCC(Cl)(Cl)Cl [2,2,2-tri-Cl-ethanol] | 0.4 | 
